Test results as given in patent publication US20260274887A1, “SALT FORM AND POLYCRYSTALLINE FORM OF ALLOPREGNANOLONE DERIVATIVE, PREPARATION METHOD THEREFOR, AND USE THEREOF” (priority 2023, published 2026).
Read-outs that look alike come from different tables or passages of the source.

Experiments:
[1] = Solubility of different salt forms in water (HPLC of supernatant); settings: for Solubility at 25° C. / Solubility at 37° C.: purified water, 24 h; for solubility at 24 h: water, thermodynamic from solid
Experimental: The system was stirred in a water bath at 25° C. In addition, the same system was prepared by the same method and stirred at 37° C. After 24 h, the supernatant was taken for HPLC analysis.

[2] = Hygroscopic weight gain experiment (Chinese Pharmacopoeia 2020 hygroscopicity guideline); format: physicochemical; settings: for Hygroscopic weight gain: 25° C.±1° C. and 80%±2% RH
Experimental: Table 1 below is the definition and range of hygroscopicity for a drug after equilibration at 25° C.±1° C. and 80%±2% RH in Guidelines for Hygroscopicity Trials for Pharmaceuticals (Chinese Pharmacopoeia, 2020 Edition, Volume IV, page 485).
The strong hygroscopicity of a drug will seriously affect the flowability of the drug and even affect the stability of the drug. Therefore, according to the present application, a hygroscopic weight gain experiment was conducted on different salt forms of compound 1 as per the method described in Guidelines for Hygroscopicity Trials for Pharmaceuticals (Chinese Pharmacopoeia, 2020 Edition, Volume IV).

[3] = Interconversion between crystalline forms (slurry of two forms, DSC); format: physicochemical; settings: room temperature, 3 days
Experimental: Samples of two different crystalline forms were mixed and dissolved in a corresponding solvent of 5 mL, and the mixture was stirred at room temperature for 3 days and separated by centrifugation. The resulting solid was dried in vacuum at 40 ° C. The dried product was subjected to a DSC test to determine the composition of the crystalline form.

[4] = Stability of crystalline form I and II (HPLC purity; XRPD and DSC crystalline form); format: physicochemical
From the text: Samples were taken on day 0, day 10, and day 30 for XRPD and DSC detections to evaluate the physical stability and for HPLC purity detection to evaluate the chemical stability.

[5] = as above; format: physicochemical; remark: listed apart in the source
[6] = DVS profile (moisture sorption) of crystalline forms; format: physicochemical
[7] = format: physicochemical
[8] = in the human body; cited from earlier work

## Cc1ccc(S(=O)(=O)O)cc1.[2H]C(C)(C)C(N)C(=O)OC1CCC2(C)C(CCC3C2CCC2(C)C(C(C)=O)CCC32)C1 (stereo not drawn)
[1]
  Solubility at 25° C.: 810 µg/mL
  Solubility at 37° C.: 890 µg/mL
[2]
  Hygroscopic weight gain: 0%

## CC(=O)O [Acetate]
[2]
  Hygroscopic weight gain: 0.4%

## C1=Cc2cccc(OC[C@H]3CNCCO3)c2C1.O=S(=O)(O)c1ccccc1 [Benzenesulfonate]
[2]
  Hygroscopic weight gain: 0.2%

## [2H]C(C)(C)[C@H](N)C(=O)O[C@@H]1CC[C@@]2(C)[C@@H](CC[C@@H]3[C@@H]2CC[C@]2(C)[C@@H](C(C)=O)CC[C@@H]32)C1 [Compound 1, L-valine-3-d, (3α,5α)-3-hydroxy-pregnan-20-one-3-yl ester]
[1]; 25 °C
  solubility at 24 h: 10 µg/mL
[1]
  Solubility at 37° C.: Not detected

## Cl.[2H]C(C)(C)[C@H](N)C(=O)O[C@@H]1CC[C@@]2(C)[C@@H](CC[C@@H]3[C@@H]2CC[C@]2(C)[C@@H](C(C)=O)CC[C@@H]32)C1 [Crystalline form III]
[3]; isopropyl acetate 5 ml
  Final crystalline form: crystalline form I

## Cl.[2H]C(C)(C)[C@H](N)C(=O)O[C@@H]1CC[C@@]2(C)[C@@H](CC[C@@H]3[C@@H]2CC[C@]2(C)[C@@H](C(C)=O)CC[C@@H]32)C1 [Crystalline form II]
[3]; isopropyl acetate 5 ml
  Final crystalline form: crystalline form I
[4]; day 0
  Purity, High humidity (RH 92.5%): 99.59%
  Purity, High temperature (60° C.): 99.59%
  Purity, Illumination (4500 ± 500 Lux): 99.59%
[4]; day 10
  Purity, High humidity (RH 92.5%): 99.65%
  Purity, High temperature (60° C.): 98.93%
[4]; day 30
  Purity, Illumination (4500 ± 500 Lux): 99.20%
[5]; day 5
  Purity, High humidity (RH 92.5%): 99.39%
  Purity, High temperature (60° C.): 99.28%
  Purity, Illumination (4500 ± 500 Lux): 99.57%
[5]; day 10
  Purity, Illumination (4500 ± 500 Lux): 99.68%
[5]; day 30
  Purity, High humidity (RH 92.5%): 99.37%
  Purity, High temperature (60° C.): 97.03%
[6]; relative humidity 50%
  DVS weight gain: about 4%

## Cl.[2H]C(C)(C)[C@H](N)C(=O)O[C@@H]1CC[C@@]2(C)[C@@H](CC[C@@H]3[C@@H]2CC[C@]2(C)[C@@H](C(C)=O)CC[C@@H]32)C1 [Crystalline form IV]
[3]; n-heptane 5 ml
  Final crystalline form: crystalline form IIL

## Cl.[2H]C(C)(C)[C@H](N)C(=O)O[C@@H]1CC[C@@]2(C)[C@@H](CC[C@@H]3[C@@H]2CC[C@]2(C)[C@@H](C(C)=O)CC[C@@H]32)C1 [Crystalline form I]
[4]; day 0
  Purity, High humidity (RH 92.5%): 99.77%
  Purity, High temperature (60° C.): 99.77%
  Purity, Illumination (4500 ± 500 Lux): 99.77%
[4]; day 10
  Purity, High humidity (RH 92.5%): 99.82%
  Purity, High temperature (60° C.): 99.77%
[4]; day 30
  Purity, Illumination (4500 ± 500 Lux): 99.65%
[5]; day 5
  Purity, High humidity (RH 92.5%): 99.72%
  Purity, High temperature (60° C.): 99.78%
  Purity, Illumination (4500 ± 500 Lux): 99.78%
[5]; day 10
  Purity, Illumination (4500 ± 500 Lux): 99.82%
[5]; day 30
  Purity, High humidity (RH 92.5%): 99.78%
  Purity, High temperature (60° C.): 99.64%
[6]; relative humidity 90%
  DVS weight gain: 1.2%
[2]; summary of the polymorph comparison
  Hygroscopicity (summary statement): non-hygroscopic

## Cl.[2H]C(C)(C)[C@H](N)C(=O)O[C@@H]1CC[C@@]2(C)[C@@H](CC[C@@H]3[C@@H]2CC[C@]2(C)[C@@H](C(C)=O)CC[C@@H]32)C1 [Hydrochloride]
[1]; 25 °C
  solubility at 24 h: 22700 µg/mL
[1]; 37 °C
  solubility at 24 h: 46400 µg/mL
[2]
  Hygroscopic weight gain: 0.2%
[7]; day 0
  HPLC purity, High humidity/RH 92.5%: 100%
  HPLC purity, High temperature/60° C.: 100%
  HPLC purity, Illumination/4500 ± 500 Lux: 100%
[7]; day 7
  HPLC purity, High humidity/RH 92.5%: 99.89%
  HPLC purity, High temperature/60° C.: 99.89%
  HPLC purity, Illumination/4500 ± 500 Lux: 99.89%
[7]; day 14
  HPLC purity, High humidity/RH 92.5%: 99.89%
  HPLC purity, High temperature/60° C.: 99.88%
  HPLC purity, Illumination/4500 ± 500 Lux: 99.89%

## O=C(O)CC(O)C(=O)O.[2H]C(C)(C)C(N)C(=O)OC1CCC2(C)C(CCC3C2CCC2(C)C(C(C)=O)CCC32)C1.[2H]C(C)(C)C(N)C(=O)OC1CCC2(C)C(CCC3C2CCC2(C)C(C(C)=O)CCC32)C1 [L-Malate]
[1]
  Solubility at 25° C.: 1400 µg/mL
  Solubility at 37° C.: 2110 µg/mL
[2]
  Hygroscopic weight gain: 4.0%

## O=P(O)(O)O.[2H]C(C)(C)C(N)C(=O)OC1CCC2(C)C(CCC3C2CCC2(C)C(C(C)=O)CCC32)C1.[2H]C(C)(C)C(N)C(=O)OC1CCC2(C)C(CCC3C2CCC2(C)C(C(C)=O)CCC32)C1 (stereo not drawn) [Phosphate]
[2]
  Hygroscopic weight gain: 4.9%

## CC(=O)[C@H]1CC[C@H]2[C@@H]3CC[C@H]4C[C@H](O)CC[C@]4(C)[C@H]3CC[C@]12C [allopregnanolone, 3α-OH-5α-pregnan-20-one]
[8]
  plasma half-life: about 45 minutes

## Maleate
[1]
  Solubility at 25° C.: 730 µg/mL
  Solubility at 37° C.: 1120 µg/mL
[2]
  Hygroscopic weight gain: 0%
